Measurements published in ChEMBL document CHEMBL1201862, “PubChem BioAssay data set” (2004).
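Assay format: 96-well plates, 48-hour exposure. Here, GI50 denotes the concentration required for 50% inhibition of growth.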 Activity calls are given as the source filed them. Rule as the data show it: active = GI50 up to about 1.1 µM and inactive = higher.

How the values were obtained:
Experiment in all cases: NCI-60 cell line screen, 48 h
786-0 = system: 786-0
A498 = system: A498
A549 = system: A549
ACHN = system: ACHN
BT-549 = system: BT-549
CAKI-1 = system: CAKI-1
CCRF-CEM = system: CCRF-CEM
COLO 205 = system: COLO 205
DU-145 = system: DU-145
EKVX = system: EKVX
HCC 2998 = system: HCC 2998
HCT-116 = system: HCT-116
HCT-15 = system: HCT-15
HL-60 = system: HL-60
HOP-62 = system: HOP-62
HOP-92 = system: HOP-92
HT-29 = system: HT-29
Hs-578T = system: Hs-578T
IGROV-1 = system: IGROV-1
K562 = system: K562
KM12 = system: KM12
LOX IMVI = system: LOX IMVI
M14 = system: M14
MCF7 = system: MCF7
MDA-MB-231 = system: MDA-MB-231
MDA-MB-435 = system: MDA-MB-435
MDA-N = system: MDA-N
MOLT-4 = system: MOLT-4
Malme-3M = system: Malme-3M
NCI-H226 = system: NCI-H226
NCI-H23 = system: NCI-H23
NCI-H460 = system: NCI-H460
NCI-H522 = system: NCI-H522
NCI/ADR-RES = system: NCI/ADR-RES
OVCAR-3 = system: OVCAR-3
OVCAR-4 = system: OVCAR-4
OVCAR-5 = system: OVCAR-5
OVCAR-8 = system: OVCAR-8
PC-3 = system: PC-3
RPMI-8226 = system: RPMI-8226
RXF 393 = system: RXF 393
SF-268 = system: SF-268
SF-295 = system: SF-295
SF-539 = system: SF-539
SK-MEL-28 = system: SK-MEL-28
SK-MEL-2 = system: SK-MEL-2
SK-MEL-5 = system: SK-MEL-5
SK-OV-3 = system: SK-OV-3
SN12C = system: SN12C
SNB-19 = system: SNB-19
SNB-75 = system: SNB-75
SR = system: SR
SW-620 = system: SW-620
T47D = system: T47D
TK-10 = system: TK-10
U-251 = system: U-251
UACC-257 = system: UACC-257
UACC-62 = system: UACC-62
UO-31 = system: UO-31

Compound: O=C(/C=C(O)/C(=C/C(=O)c1ccccc1)NN=C(c1ccccc1)c1ccccc1)c1ccccc1
- GI50 (786-0): 31.1 µM (inactive)
- GI50 (A498): 32.4 µM (inactive)
- GI50 (A549): 36.1 µM (inactive)
- GI50 (ACHN): 38.3 µM (inactive)
- GI50 (BT-549): 31.2 µM (inactive)
- GI50 (CAKI-1): 39.7 µM (inactive)
- GI50 (CCRF-CEM): 3.3 µM (inactive)
- GI50 (COLO 205): 40.6 µM (inactive)
- GI50 (DU-145): 45.2 µM (inactive)
- GI50 (EKVX): > 100 µM (inactive)
- GI50 (HCC 2998): 20.6 µM (inactive)
- GI50 (HCT-116): 28.1 µM (inactive)
- GI50 (HCT-15): 23.5 µM
- GI50 (HL-60): 1.57 µM (inactive)
- GI50 (HOP-62): 21 µM (inactive)
- GI50 (HOP-92): 60.4 µM (inactive)
- GI50 (HT-29): 85.7 µM (inactive)
- GI50 (Hs-578T): 29.2 µM (inactive)
- GI50 (IGROV-1): 36.9 µM (inactive)
- GI50 (K562): 15.2 µM (inactive)
- GI50 (KM12): 42.3 µM (inactive)
- GI50 (LOX IMVI): 38.3 µM (inactive)
- GI50 (M14): 24.9 µM (inactive)
- GI50 (MCF7): 34.4 µM (inactive)
- GI50 (MDA-MB-231): 49.7 µM (inactive)
- GI50 (MDA-MB-435): 31 µM (inactive)
- GI50 (MDA-N): 31.8 µM (inactive)
- GI50 (MOLT-4): 14.1 µM (inactive)
- GI50 (Malme-3M): 25.2 µM (inactive)
- GI50 (NCI-H226): 24.9 µM (inactive)
- GI50 (NCI-H23): 24 µM (inactive)
- GI50 (NCI-H460): 24 µM (inactive)
- GI50 (NCI-H522): 15.7 µM (inactive)
- GI50 (NCI/ADR-RES): 18.9 µM (inactive)
- GI50 (OVCAR-3): 18.3 µM (inactive)
- GI50 (OVCAR-4): 38.4 µM (inactive)
- GI50 (OVCAR-5): > 100 µM (inactive)
- GI50 (OVCAR-8): 44.7 µM (inactive)
- GI50 (PC-3): 35.9 µM (inactive)
- GI50 (RPMI-8226): 24.4 µM (inactive)
- GI50 (RXF 393): 41 µM (inactive)
- GI50 (SF-268): 30.3 µM (inactive)
- GI50 (SF-295): 23.5 µM (inactive)
- GI50 (SF-539): 37.5 µM (inactive)
- GI50 (SK-MEL-28): 51.6 µM (inactive)
- GI50 (SK-MEL-2): 25.8 µM (inactive)
- GI50 (SK-MEL-5): 18.7 µM (inactive)
- GI50 (SK-OV-3): 25.8 µM (inactive)
- GI50 (SN12C): 30.2 µM (inactive)
- GI50 (SNB-19): 41.3 µM (inactive)
- GI50 (SNB-75): 49.7 µM (inactive)
- GI50 (SR): 9.08 µM (inactive)
- GI50 (SW-620): 33.2 µM (inactive)
- GI50 (T47D): 32.4 µM (inactive)
- GI50 (TK-10): 28.4 µM (inactive)
- GI50 (U-251): 26.7 µM (inactive)
- GI50 (UACC-257): 26.9 µM (inactive)
- GI50 (UACC-62): 17.1 µM (inactive)
- GI50 (UO-31): 47.6 µM (inactive)
